{
  "source": "patent US11124506B2",
  "about": "“Salts and crystal forms of diaza-benzofluoranthrene compounds” (HARBIN PHARMACEUTICAL GROUP CO., LTD. GENERAL …, priority 2016, dated 2021)",
  "target": "T1, PDE1A (Homo sapiens, UniProt P54750)",
  "T1 construct": "purchased SignalChem",
  "experiment": "In vitro detection of phosphodiesterase (PDE), fluorescence polarization detection of AMP/GMP production",
  "assay_type": "biochemical",
  "conditions": "human enzyme (SignalChem), cAMP or cGMP substrate, Ca2+-calmodulin cofactor; read-out: IC50 values measured by PDE1 detection: PDE1",
  "procedure": "Experimental Example 1: The In Vitro Detection of Phosphodiesterase (PDE)\nPrinciple of the Experiment:\nThe assay measures PDE1A enzyme activity based on fluorescence polarization detection of AMP/GMP production. The principle of the reaction is to replace the binding of AMP/GMP to its antibody by AlexaFluor 633 labeled AMP/GMP.\nReaction buffer: 10 mM Tris-HCl, pH=7.5, 5 mM magnesium chloride, 0.01% Brij 35, 1 mM DTT, and 1% DMSO;\nEnzyme substrate: […] cAMP or cGMP (Ca^2+-calmodulin as a cofactor of PDE1A);\nTranscreener® AMP2/GMP2 antibody;\nAMP2/GMP2 AlexaFluor 633 marker.\nExperimental Procedures and Methods:\n1. Human enzyme to be tested (purchased from SignalChem) and the substrate were diluted with a freshly prepared reaction buffer.\n2. An enzyme solution (concentration: 3 pM) was added to the wells of a reaction plate.\n3. […]\n7. The following devices were used for detection: EnVision (PerkinElmer), Cy5FP Ex FP 620, Em S-pol 688/P-pol 688, FP mirror D658fp/D688; fluorescence polarization was detected using Ex/Em 620/688.\nEnzymatic activity corresponding to the FP signal was retrieved in an AMP/GMP standard curve using DMSO as a control in an Excel table. […] An analysis was performed using GraphPad Prism and IC50 values were calculated.",
  "note": "pIC50: −log10 of the molar value.",
  "data": [
    {"smiles": "CC[C@@]12C=C(c3nc(C)no3)n3c4c(c5ccccc53)CCN(CCC1)[C@H]42", "note": "[Compound 1]", "values": [
      {"measurement": "pIC50", "result": "4.70 to 6.00"}
    ]}
  ]
}
